Source: patent publication US11203600B2 (Denali Therapeutics Inc., priority 2017, dated 2021)

Molecular target: GST-hRIPK1 (8-327) (Homo sapiens (Human), UniProt Q13546)
Experiment: Fluorescent Polarization Binding (FP Binding) assay, RIPK1
Settings: mean of at least two independent experiments
Procedure: Fluorescent Polarization Binding (FP Binding) assay (Berger S. B. et al. (2015) Cell Death Discovery, 1: 15009; Maki J. L. et al. (2012) Anal Biochem., 427(2): 164-174) was performed in polystyrene low volume 384-well black plate, at RT in a final volume of 10.1 μl/well using 10 nM of GST-hRIPK1 (8-327) enzyme and 5 nM of fluorescent-labeled ligand (14-(2-{[3-({2-{[4-(cyanomethyl)phenyl]amino]-6-[(5-cyclopropyl-1H-pyrazol-3-yl)amino]-4-pyrimidinyl}amino) propyl}amino}-2-oxoethyl)-16,16,18,18-tetramethyl-6,7,7a,8a,9,10,16,18-octahydrobenzo [2″,3″]indolizino[8″,7″:5′,6′]pyrano [3′,2′:3,4]pyrido[1,2-a]indo1-5-ium-2-sulfonate.
Test compounds were serially diluted in DMSO at 100 fold final concentrations in the assay (1% DMSO final). In each well of a 384-well Plate were dispensed 0.1 μL of compound solution (or DMSO for controls) followed by 5 μL of GST-hRIPK1 (8-327) at twice the final concentrations in assay buffer (50 mM HEPES pH 7.5, 10 mM NaCl, 50 mM MgCl2, 0.02% CHAPS, 0.5 mM DTT and 0.01% Pluronic F127). For negative control the enzyme addition was replaced by assay buffer only.
After addition of 5 μL of fluorescentlabeled ligand at twice the final concentrations in assay buffer, the plate was incubated at RT for […]. At the end, the binding was measured as FP value with the Envision (PerkinElmer) plate reader using filter for an excitation λ=531 nm FP and an emission λ=595 nm FP (S & P-pol). GST-hRIPK1 (8-327) enzyme was produced via Baculovirus expression.
Test compound inhibition was expressed as percent inhibition of internal assay controls. For concentration response curves, normalized data is fit and IC50 determined using XL-fit (IDBS) for Excel. The IC50 values were averaged to determine a mean value, for a minimum of two independent experiments. Results are shown in Table 2 (RIPK1 IC50) values: +++=0.1 nM<IC50<100 nM; ++=100 nM<IC50<1 μM; +=1 μM<IC50).

[1] = 10 nM GST-hRIPK1 (8-327), 5 nM fluorescent-labeled ligand, RT, 30 min

GST-hRIPK1 (8-327), sequence (Q13546 8-327): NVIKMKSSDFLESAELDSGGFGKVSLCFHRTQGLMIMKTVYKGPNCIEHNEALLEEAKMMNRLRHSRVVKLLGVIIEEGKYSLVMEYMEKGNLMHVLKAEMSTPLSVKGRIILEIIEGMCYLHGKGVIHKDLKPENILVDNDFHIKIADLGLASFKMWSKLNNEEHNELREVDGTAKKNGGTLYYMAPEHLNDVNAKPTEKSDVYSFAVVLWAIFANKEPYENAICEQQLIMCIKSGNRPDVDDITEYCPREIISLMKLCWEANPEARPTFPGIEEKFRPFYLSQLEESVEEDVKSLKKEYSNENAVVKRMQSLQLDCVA

Structure (SMILES) | IC50 (GST-hRIPK1 (8-327)) | IC50 [1]
N#Cc1cncc2c1OCCN(C(=O)C1CCN(c3ncc(F)cn3)CC1F)C2 (single isomer, unassigned) [Example 305, 4-[3-Fluoro-1-(5-fluoropyrimidin-2-yl)piperidine-4-carbonyl]-3,5-dihydro-2H-pyrido[3,4-f][1,4]oxazepine-9-carbonitrile] | 0.1 to 1 µM | 
N#Cc1cncc2c1OCCN(C(=O)C1CCN(c3ncc(F)cn3)CC1F)C2 (single isomer, unassigned) [Example 306, 4-[3-Fluoro-1-(5-fluoropyrimidin-2-yl)piperidine-4-carbonyl]-3,5-dihydro-2H-pyrido[3,4-f][1,4]oxazepine-9-carbonitrile] | 0.0001 to 0.1 µM | 
N#Cc1cncc2c1OCCN(C(=O)C1CCN(c3ncc(F)cn3)CC1(F)F)C2 (single isomer, unassigned) [Example 307, 4-[3,3-Difluoro-1-(5-fluoropyrimidin-2-yl)piperidine-4-carbonyl]-3,5-dihydro-2H-pyrido[3,4-f][1,4]oxazepine-9-carbonitrile] | 0.1 to 1 µM | 
N#Cc1cncc2c1OCCN(C(=O)C1CCN(c3ncc(F)cn3)CC1(F)F)C2 (single isomer, unassigned) [Example 308, 4-[3,3-Difluoro-1-(5-fluoropyrimidin-2-yl)piperidine-4-carbonyl]-3,5-dihydro-2H-pyrido[3,4-f][1,4]oxazepine-9-carbonitrile] | 0.0001 to 0.1 µM | 
O=C(C1CC(F)(F)C1)N1CCOc2ccccc2C1 [Example 1, (3,3-difluorocyclobutyl)(2,3-dihydrobenzo[f][1,4]oxazepin-4(5H)-yl)methanone] |  | > 1 µM
CC(C)(C(=O)N1CCOc2c(C#N)ccc(F)c2C1)C(F)F [Example 2, 4-(3,3-difluoro-2,2-dimethyl-propanoyl)-6-fluoro-3,5-dihydro-2H-1,4-benzoxazepine-9-carbonitrile] |  | 0.0001 to 0.1 µM
CC(C)(C)C(=O)N1CCCc2ccccc2C1 [Example 3, 2,2-dimethyl-1-(1,3,4,5-tetrahydro-2-benzazepin-2-yl)propan-1-one] |  | 0.1 to 1 µM
CCC(C)(C)C(=O)N1CCCc2ccccc2C1 [Example 4, 2,2-dimethyl-1-(1,3,4,5-tetrahydro-2-benzazepin-2-yl)butan-1-one] |  | 0.1 to 1 µM
CC(C)(C(=O)N1CCCc2ccccc2C1)C(F)F [Example 5, 3,3-difluoro-2,2-dimethyl-1-(1,3,4,5-tetrahydro-2-benzazepin-2-yl)propan-1-one] |  | 0.1 to 1 µM
CCC(C)(C)C(=O)N1CCOc2ccccc2C1 [Example 6, 1-(3,5-dihydro-2H-1,4-benzoxazepin-4-yl)-2,2-dimethyl-butan-1-one] |  | 0.0001 to 0.1 µM
CC(C)(C(=O)N1CCOc2ccccc2C1)C(F)F [Example 7, 1-(3,5-dihydro-2H-1,4-benzoxazepin-4-yl)-3,3-difluoro-2,2-dimethyl-propan-1-one] |  | 0.0001 to 0.1 µM
O=C(C1CCN(c2ncc(F)cn2)CC1)N1CCOc2ccccc2C1 [Example 8, 3,5-dihydro-2H-1,4-benzoxazepin-4-yl-[1-(5-fluoropyrimidin-2-yl)-4-piperidyl]methanone] |  | 0.0001 to 0.1 µM
CC1(C(=O)N2CCOc3ccccc3C2)CCN(c2ncc(F)cn2)CC1 [Example 9, 3,5-dihydro-2H-1,4-benzoxazepin-4-yl-[1-(5-fluoropyrimidin-2-yl)-4-methyl-4-piperidyl]methanone] |  | 0.0001 to 0.1 µM
CC(C)(C(=O)N1CCOc2ccc(Cl)cc2C1)C(F)F [Example 10, 1-(7-chloro-2,3-dihydrobenzo[f][1,4]oxazepin-4(5H)-yl)-3,3-difluoro-2,2-dimethylpropan-1-one] |  | 0.1 to 1 µM
Cc1ccc2c(c1)CN(C(=O)C(C)(C)C(F)F)CCO2 [Example 11, 3,3-difluoro-2,2-dimethyl-1-(7-methyl-2,3-dihydrobenzo[f][1,4]oxazepin-4(5H)-yl)propan-1-one] |  | 0.1 to 1 µM
COc1ccc2c(c1)OCCN(C(=O)C(C)(C)C(F)F)C2 [Example 12, 3,3-difluoro-1-(8-methoxy-3,5-dihydro-2H-14-benzoxazepin-4-yl)-2,2-dimethyl-propan-1-one] |  | 0.1 to 1 µM
CC(C)(C(=O)N1CCOc2c(F)cccc2C1)C(F)F [Example 13, 3,3-difluoro-1-(9-fluoro-2,3-dihydrobenzo[f][1,4]oxazepin-4(5H)-yl)-2,2-dimethylpropan-1-one] |  | 0.0001 to 0.1 µM
CC(C)(CC#N)C(=O)N1CCOc2c(F)cccc2C1 [Example 14, 4-(9-fluoro-3,5-dihydro-2H-1,4-benzoxazepin-4-yl)-3,3-dimethyl-4-oxo-butanenitrile] |  | 0.0001 to 0.1 µM

Structure (SMILES) | IC50 (GST-hRIPK1 (8-327)) | IC50 [1]
CC(C)(C(=O)N1CCOc2c(F)cccc2C1)C1CC1 [Example 15, 2-cyclopropyl-1-(9-fluoro-3,5-dihydro-2H-1,4-benzoxazepin-4-yl)-2-methyl-propan-1-one] |  | 0.0001 to 0.1 µM
CC(C)(CC(F)F)C(=O)N1CCOc2c(F)cccc2C1 [Example 16, 4,4-difluoro-1-(9-fluoro-3,5-dihydro-2H-1,4-benzoxazepin-4-yl)-2,2-dimethyl-butan-1-one] |  | 0.0001 to 0.1 µM
CC(C(=O)N1CCOc2c(F)cccc2C1)C(F)(F)F (centres unmarked) [Example 17, 3,3,3-trifluoro-1-(9-fluoro-3,5-dihydro-2H-1,4-benzoxazepin-4-yl)-2-methyl-propan-1-one] |  | > 1 µM
CC(F)(F)C(C)(C)C(=O)N1CCOc2c(F)cccc2C1 [Example 18, 3,3-difluoro-1-(9-fluoro-3,5-dihydro-2H-1,4-benzoxazepin-4-yl)-2,2-dimethyl-butan-1-one] |  | 0.0001 to 0.1 µM
O=C(C(C1CC1)C1CC1)N1CCOc2c(F)cccc2C1 [Example 19, 2,2-dicyclopropyl-1-(9-fluoro-3,5-dihydro-2H-1,4-benzoxazepin-4-yl)ethanone] |  | > 1 µM
CC(C)(C(=O)N1CCOc2cccc(F)c2C1)C(F)F [Example 20, 3,3-difluoro-1-(6-fluoro-2,3-dihydrobenzo[f][1,4]oxazepin-4(5H)-yl)-2,2-dimethylpropan-1-one] |  | 0.0001 to 0.1 µM
CC1COc2ccccc2CN1C(=O)C(C)(C)C(F)F (centres unmarked) [Example 21, 3,3-difluoro-2,2-dimethyl-1-(3-methyl-2,3-dihydrobenzo[f][1,4]oxazepin-4(5H)-yl)propan-1-one] |  | 0.0001 to 0.1 µM
CC(C)(C(=O)N1CCOc2c(C#N)cc(F)cc2C1)C(F)F [Example 22, 4-(3,3-difluoro-2,2-dimethyl-propanoyl)-7-fluoro-3,5-dihydro-2H-1,4-benzoxazepine-9-carbonitrile] |  | 0.0001 to 0.1 µM
CC(C)(C(=O)N1CCOc2c(C#N)cccc2C1)C(F)F [Example 23, 4-(3,3-difluoro-2,2-dimethyl-propanoyl)-3,5-dihydro-2H-1,4-benzoxazepine-9-carbonitrile] |  | 0.0001 to 0.1 µM
CC1(C(=O)N2CCOc3c(C#N)cccc3C2)CCN(c2ncc(F)cn2)CC1 [Example 24, 4-[1-(5-fluoropyrimidin-2-yl)-4-methyl-piperidine-4-carbonyl]-3,5-dihydro-2H-1,4-benzoxazepine-9-carbonitrile] |  | 0.0001 to 0.1 µM
CC(C)(CC#N)C(=O)N1CCOc2c(C#N)cccc2C1 [Example 25, 4-(3-cyano-2,2-dimethyl-propanoyl)-3,5-dihydro-2H-1,4-benzoxazepine-9-carbonitrile] |  | 0.0001 to 0.1 µM
CC(C)(C(=O)N1CCOc2c(C#N)cccc2C1)C1CC1 [Example 26, 4-(2-cyclopropyl-2-methyl-propanoyl)-3,5-dihydro-2H-1,4-benzoxazepine-9-carbonitrile] |  | 0.0001 to 0.1 µM
CC(C)(C(=O)N1CCOc2cccc(C#N)c2C1)C(F)F [Example 27, 4-(3,3-difluoro-2,2-dimethyl-propanoyl)-3,5-dihydro-2H-1,4-benzoxazepine-6-carbonitrile] |  | > 1 µM
CC(C)(C(=O)N1CCOc2cc(C#N)ccc2C1)C(F)F [Example 28, 4-(3,3-difluoro-2,2-dimethyl-propanoyl)-3,5-dihydro-2H-1,4-benzoxazepine-8-carbonitrile] |  | 0.1 to 1 µM
CC(C)(C(=O)N1CCOc2c(C#N)cncc2C1)C(F)F [Example 29, 4-(3,3-difluoro-2,2-dimethyl-propanoyl)-3,5-dihydro-2H-pyrido[3,4-f][1,4]oxazepine-9-carbonitrile] |  | 0.0001 to 0.1 µM
CC(C)(C(=O)N1CCOc2c(C#N)cncc2C1)C1CC1 [Example 30, 4-(2-cyclopropyl-2-methyl-propanoyl)-3,5-dihydro-2H-pyrido[3,4-f][1,4]oxazepine-9-carbonitrile] |  | 0.0001 to 0.1 µM
CC(C)(CC#N)C(=O)N1CCOc2c(C#N)cncc2C1 [Example 31, 4-(3-cyano-2,2-dimethyl-propanoyl)-3,5-dihydro-2H-pyrido[3,4-f][1,4]oxazepine-9-carbonitrile] |  | 0.1 to 1 µM
